Measurements as given in ChEMBL document CHEMBL4251653, “In vivo potent BM635 analogue with improved drug-like properties” (Eur J Med Chem, 2018).
Converted amounts (≈) assume the structure as drawn.

Tests used:
[1] = Lipophilicity, log D of the compound at pH 7.4 by UV-HPLC method; format: physicochemical; conditions: buffer
[2] = tested on: Mycobacterium tuberculosis; assay: microbe, parasite or virus in culture; conditions: 144 h
Description: Antitubercular activity against Mycobacterium tuberculosis after 6 days by resazurin-based fluorescence assay

HepG2 [3] = assay: Cytotoxicity against human HepG2 cells assessed as compound concentration causing changes in nuclear morphology by Cell Health assay; format: cell-based
HepG2 [4] = assay: Cytotoxicity against human HepG2 cells assessed as compound concentration causing changes in mitochondrial potential by Cell Health assay; format: cell-based
Albumin = Albumin (Homo sapiens, UniProt P02768); assay: Binding affinity to human serum albumin; format: ADME; conditions: isolated protein
Albumin, sequence (P02768 whole entry): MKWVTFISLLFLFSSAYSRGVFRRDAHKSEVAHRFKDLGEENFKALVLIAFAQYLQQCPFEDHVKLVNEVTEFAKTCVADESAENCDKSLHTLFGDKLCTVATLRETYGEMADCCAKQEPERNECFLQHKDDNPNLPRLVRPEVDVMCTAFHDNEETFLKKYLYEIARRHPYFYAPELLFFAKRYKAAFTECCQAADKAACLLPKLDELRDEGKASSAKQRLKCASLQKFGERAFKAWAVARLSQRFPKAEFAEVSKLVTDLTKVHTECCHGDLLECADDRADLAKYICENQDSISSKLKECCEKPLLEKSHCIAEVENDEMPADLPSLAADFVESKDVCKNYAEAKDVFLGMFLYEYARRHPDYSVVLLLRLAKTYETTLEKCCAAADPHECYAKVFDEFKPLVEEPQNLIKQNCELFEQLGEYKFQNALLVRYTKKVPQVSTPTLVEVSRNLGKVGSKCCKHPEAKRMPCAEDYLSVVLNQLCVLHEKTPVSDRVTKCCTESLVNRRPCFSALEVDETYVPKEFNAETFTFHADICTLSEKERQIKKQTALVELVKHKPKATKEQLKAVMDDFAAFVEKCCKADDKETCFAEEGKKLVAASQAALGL

HepG2 [5] = assay: Cytotoxicity against human HepG2 cells assessed as compound concentration causing changes in membrane permeability by Cell Health assay; format: cell-based
[6] = molecular target: Voltage-gated inwardly rectifying potassium channel KCNH2 (Homo sapiens, UniProt Q12809); assay: Inhibition of human ERG by [3H]dofetilide binding displacement assay
Voltage-gated inwardly rectifying potassium channel KCNH2, sequence (Q12809 whole entry): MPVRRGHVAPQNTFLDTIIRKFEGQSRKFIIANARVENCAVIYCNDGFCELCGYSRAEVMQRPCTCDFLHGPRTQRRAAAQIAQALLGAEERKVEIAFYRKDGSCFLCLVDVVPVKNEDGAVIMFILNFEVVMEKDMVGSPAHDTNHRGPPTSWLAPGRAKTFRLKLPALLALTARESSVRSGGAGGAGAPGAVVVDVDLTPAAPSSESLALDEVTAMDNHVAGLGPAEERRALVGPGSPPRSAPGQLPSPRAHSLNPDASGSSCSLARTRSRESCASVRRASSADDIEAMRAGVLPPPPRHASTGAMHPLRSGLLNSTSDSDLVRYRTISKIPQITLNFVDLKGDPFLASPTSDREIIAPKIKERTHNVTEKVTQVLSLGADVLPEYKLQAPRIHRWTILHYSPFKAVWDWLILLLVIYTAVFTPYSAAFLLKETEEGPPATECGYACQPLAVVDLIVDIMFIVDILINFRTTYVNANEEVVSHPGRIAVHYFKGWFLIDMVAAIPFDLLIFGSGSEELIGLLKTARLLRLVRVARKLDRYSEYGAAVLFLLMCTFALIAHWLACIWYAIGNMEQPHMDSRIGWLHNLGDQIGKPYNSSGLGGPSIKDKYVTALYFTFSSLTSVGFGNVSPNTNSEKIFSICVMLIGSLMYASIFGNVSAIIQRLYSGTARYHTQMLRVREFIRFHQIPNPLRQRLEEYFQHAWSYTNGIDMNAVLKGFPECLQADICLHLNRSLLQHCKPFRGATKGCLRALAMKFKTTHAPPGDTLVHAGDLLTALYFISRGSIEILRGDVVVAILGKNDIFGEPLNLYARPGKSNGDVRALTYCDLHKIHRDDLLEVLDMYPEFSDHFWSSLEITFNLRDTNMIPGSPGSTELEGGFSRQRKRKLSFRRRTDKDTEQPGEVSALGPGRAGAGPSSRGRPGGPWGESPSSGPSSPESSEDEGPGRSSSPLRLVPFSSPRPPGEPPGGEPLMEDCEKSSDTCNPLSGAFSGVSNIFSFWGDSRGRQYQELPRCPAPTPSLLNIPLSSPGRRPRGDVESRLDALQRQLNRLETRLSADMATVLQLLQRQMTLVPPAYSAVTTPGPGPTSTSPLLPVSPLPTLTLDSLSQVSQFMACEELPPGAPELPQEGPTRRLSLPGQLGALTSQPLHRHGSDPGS

[7] = Kinetic solubility in pH 7.4 phosphate buffered saline incubated for 1 hr by chemiluminescent nitrogen detection method; format: physicochemical; conditions: read-out: Kinetic_solubility
[8] = Cytotoxicity against human HepG2 cells incubated for 48 hrs by Cell-titer Glo assay; format: cell-based; conditions: read-out: TC50
in vitro = conditions: human, HepG2 cells
Description: Selectivity index, ratio of TC50 for human HepG2 cells to MIC for Mycobacterium tuberculosis

[9] = tested on: Mycobacterium tuberculosis; assay: microbe, parasite or virus in culture; conditions: H37Rv, THP-1, 96 h
Description: Antitubercular activity against Mycobacterium tuberculosis H37Rv infected in human THP1 macrophages incubated for 4 days by luciferase reporter gene assay

[10] = Solubility of the compound in FaSSIF at pH 6.5 incubated for 4 hrs by UPLC-MS method; format: physicochemical
[11] = Permeability of the compound by artificial membrane permeability assay; format: ADME; conditions: PAMPA; read-out: permeability

Structure (SMILES)	MIC [2] [µM]	CC50 at 48 h [8] [µM]	selectivity ratio (in vitro)	IC50 [9] [µM]	further results
Cc1c(CN2CCOCC2)cc(-c2ccc(C(C)C)cc2)n1-c1ccc(F)cc1	0.12 (≈ 0.0471 µg/mL)	40	333	0.1	logD ([1]; read-out: logD): 8.1; Activity (HepG2 [3]): > 40 µM; Activity (HepG2 [4]): > 40 µM; Activity (Albumin): 98.37%; Activity (HepG2 [5]): > 40 µM; IC50 [6]: 10 µM; solubility kinetic at 1 h [7]: < 1 µM; solubility at 4 h [10]: 5 µg/mL (≈ 12.7 µM); Papp [11]: 24 ×10⁻⁶ cm/s
COc1ccc(-c2cc(CN3CCOCC3)c(C)n2C(C)C)cc1	2.5 (≈ 0.821 µg/mL)	–	–	–	–
Cc1c(CN2CCOCC2)cc(-c2ccc(C(C)C)cc2)n1C1CCCC(O)C1 (centres undefined)	> 40	20	–	–	–
Cc1c(CN2CCOCC2)cc(-c2ccc(C(C)C)cc2)n1Cc1ccc(F)cc1	0.08 (≈ 0.0325 µg/mL)	20	250	0.16	logD ([1]; read-out: logD): 8.2; Activity (Albumin): 98.47%; IC50 [6]: 5 µM; solubility kinetic at 1 h [7]: 11 µM (≈ 4.47 µg/mL); Papp [11]: 30 ×10⁻⁶ cm/s
Cc1c(CN2CCOCC2)cc(-c2ccc(C(F)(F)F)cc2)n1C1CCC1	1.25 (≈ 0.473 µg/mL)	20	67	–	–
Cc1[nH]c(-c2ccc(C(C)C)cc2)cc1CN1CCOCC1	12.5 (≈ 3.73 µg/mL)	1.6	–	> 10	–
Cc1c(CN2CCOCC2)cc(-c2ccc(C(C)C)cc2)n1CC(C)(C)O	2.5 (≈ 0.926 µg/mL)	40	–	2.5	Activity (HepG2 [3]): 50 µM; Activity (HepG2 [4]): 126 µM; Activity (HepG2 [5]): 100 µM
COCCCn1c(-c2ccc(C(C)C)cc2)cc(CN2CCOCC2)c1C	1.3 (≈ 0.482 µg/mL)	–	–	1.25	Activity (HepG2 [3]): 32 µM; Activity (HepG2 [4]): 50 µM; Activity (HepG2 [5]): 40 µM
CC(=O)Nc1ccc(-c2cc(CN3CCOCC3)c(C)n2-c2ccc(F)cc2)cc1	1.25 (≈ 0.509 µg/mL)	80	40	3.3	–
Cc1c(CN2CCOCC2)cc(-c2ccc(C(C)C)cc2)n1CC(C)C	0.2 (≈ 0.0709 µg/mL)	20	100	0.08	logD ([1]; read-out: logD): 8.46; Activity (Albumin): 97.12%; IC50 [6]: 16 µM; solubility kinetic at 1 h [7]: 47 µM (≈ 16.7 µg/mL); Papp [11]: 43 ×10⁻⁶ cm/s
Cc1c(CN2CCOCC2)cc(-c2ccc(C(C)C)cc2)n1CCCC(=O)O	> 40	> 100	–	–	–
Cc1c(CN2CCOCC2)cc(-c2ccc(C(C)C)cc2)n1-c1ccc(C(=O)O)cc1	> 40	> 100	–	–	–
Cc1c(CN2CCOCC2)cc(Cc2ccccc2)n1-c1ccc(F)cc1	> 5	10	–	–	–
Cc1cc(CN2CCOCC2)c(C)n1-c1ccc(F)cc1	> 5	> 100	–	> 10	–
Cc1c(CN2CCOCC2)cc(-c2ccc(C(C)C)cc2)n1[C@@H]1CCCNC1	> 80	16	–	–	–
Cc1c(CN2CCOCC2)cc(-c2ccc(C(C)C)cc2)n1CC1CCCO1 (centres undefined)	5 (≈ 1.91 µg/mL)	32	–	5	Activity (HepG2 [3]): 40 µM; Activity (HepG2 [4]): 63 µM; Activity (HepG2 [5]): 50 µM
Cc1c(CN2CCOCC2)cc(-c2ccc(C(C)C)cc2)n1C1CCCCC1	0.3 (≈ 0.114 µg/mL)	> 100	> 267	0.63	logD [1]: 9.13; Activity (HepG2 [3]): > 200 µM; Activity (HepG2 [4]): > 200 µM; Activity (Albumin): 98.1%; Activity (HepG2 [5]): > 200 µM; IC50 [6]: 50 µM; solubility kinetic at 1 h [7]: < 1 µM; Papp [11]: 27 ×10⁻⁶ cm/s
Cc1c(CN2CCOCC2)cc(-c2ccc(C(C)C)cc2)n1C	1.25 (≈ 0.391 µg/mL)	16	13	1.25	Activity (HepG2 [3]): 40 µM; Activity (HepG2 [4]): 50 µM; Activity (HepG2 [5]): 40 µM
Cc1c(CN2CCOCC2)cc(-c2ccc(C(C)C)cc2)n1C1CCOCC1	2.5 (≈ 0.956 µg/mL)	50.1	–	–	–
Cc1cc(Cl)ccc1-c1cc(CN2CCOCC2)c(C)n1-c1ccc(F)cc1	5 (≈ 1.99 µg/mL)	> 100	–	> 10	Activity (HepG2 [3]): > 200 µM; Activity (HepG2 [4]): > 200 µM; Activity (HepG2 [5]): > 200 µM
Cc1c(CN2CCOCC2)cc(-c2ccc(Cl)cn2)n1-c1ccc(F)cc1	> 125	> 100	–	> 10	Activity (HepG2 [3]): > 200 µM; Activity (HepG2 [4]): > 200 µM; Activity (HepG2 [5]): > 200 µM

Structure (SMILES)	MIC [2] [µM]	CC50 at 48 h [8] [µM]	selectivity ratio (in vitro)	IC50 [9] [µM]	further results
Cc1c(CN2CCOCC2)cc(-c2ccc(Cl)cc2)n1C(C)C	2.5 (≈ 0.832 µg/mL)	–	–	–	–
Cc1c(CN2CCOCC2)cc(-c2ccc(C(C)C)cc2)n1C1CCN(C)CC1	> 5	20	–	> 10	–
Cc1c(CN2CCOCC2)cc(-c2ccc(C(F)(F)F)cc2)n1C1CCCCC1	1.25 (≈ 0.508 µg/mL)	> 100	> 167	–	–
COCCn1c(-c2ccc(C(C)C)cc2)cc(CN2CCOCC2)c1C	1.3 (≈ 0.463 µg/mL)	50.1	39	1.32	–
Cc1c(CN2CCOCC2)cc(-c2ccc(Cl)nc2)n1-c1ccc(F)cc1	> 5	80	–	> 10	–
Cc1c(CN2CCOCC2)cc(-c2ccc(C(C)C)cc2)n1-c1cccc(C(=O)O)c1	40 (≈ 16.7 µg/mL)	> 100	–	–	–
Cc1c(CN2CCOCC2)cc(-c2ccc(C(C)C)cc2)n1C1COC1	2.5 (≈ 0.886 µg/mL)	80	–	2.5	Activity (HepG2 [3]): 80 µM; Activity (HepG2 [4]): 100 µM; Activity (HepG2 [5]): 80 µM
Cc1c(CN2CCOCC2)cc(-c2ccc(C(C)C)cc2)n1-c1ccc(F)cn1	0.6 (≈ 0.236 µg/mL)	20	33	0.6	logD ([1]; read-out: logD): 6.85; Activity (HepG2 [3]): 50 µM; Activity (HepG2 [4]): 80 µM; Activity (Albumin): 94.13%; Activity (HepG2 [5]): 63 µM; IC50 [6]: 8 µM; solubility kinetic at 1 h [7]: 276 µM (≈ 109 µg/mL); Papp [11]: 64 ×10⁻⁶ cm/s
Cc1c(CN2CCOCC2)cc(-c2ccc(C(C)C)cc2)n1-c1ncccn1	40 (≈ 15.1 µg/mL)	> 100	–	–	–
Cc1c(CN2CCOCC2)cc(-c2ccc(C(C)C)cc2)n1CCC(=O)O	> 40	> 100	–	–	–
Cc1c(CN2CCOCC2)cc(-c2ccc(C(C)C)cc2)n1C1CCC1	0.08 (≈ 0.0282 µg/mL)	20	250	0.08	logD ([1]; read-out: logD): 8.13; Activity (HepG2 [3]): 25 µM; Activity (HepG2 [4]): 32 µM; Activity (Albumin): 98.12%; Activity (HepG2 [5]): 25 µM; IC50 [6]: 8 µM; solubility kinetic at 1 h [7]: 71 µM (≈ 25 µg/mL); Papp [11]: 55 ×10⁻⁶ cm/s
Cc1c(CN2CCOCC2)cc(-c2ccc(C(C)C)cc2)n1C1CC1	0.3 (≈ 0.102 µg/mL)	20	67	0.2	logD ([1]; read-out: logD): 7.21; Activity (HepG2 [3]): 40 µM; Activity (HepG2 [4]): 50 µM; Activity (Albumin): 96.49%; Activity (HepG2 [5]): 40 µM; IC50 [6]: 8 µM; solubility kinetic at 1 h [7]: 181 µM (≈ 61.3 µg/mL); solubility at 4 h [10]: 511 µg/mL (≈ 1510 µM)
Cc1c(CN2CCOCC2)cc(-c2ccc(C(C)C)cc2)n1-c1ccc(N(C)C)cc1	1.25 (≈ 0.522 µg/mL)	16	13	2.5	–
Cc1c(CN2CCOCC2)cc(-c2ccc(C(C)C)cc2)n1[C@@H]1CCCN(C)C1	> 40	25	–	–	–
Cc1c(CN2CCOCC2)cc(-c2ccc(C(C)C)cc2)n1CC1CCOCC1	> 5	> 100	–	5.28	–
Cc1c(CN2CCOCC2)cc(-c2ccc(C(F)(F)F)cc2)n1-c1ccc(F)cc1	0.6 (≈ 0.251 µg/mL)	> 100	167	–	logD ([1]; read-out: logD): 7.67; Activity (Albumin): 98.33%; IC50 [6]: > 50 µM; solubility kinetic at 1 h [7]: < 1 µM; Papp [11]: 15 ×10⁻⁶ cm/s
Cc1c(CN2CCOCC2)cc(C2CCCCC2)n1-c1ccc(F)cc1	> 5	50	–	> 10	–
Cc1c(CN2CCOCC2)cc(-c2ccc(C(F)(F)F)cc2)n1C(C)C	2.5 (≈ 0.916 µg/mL)	20	–	–	–
Cc1c(CN2CCOCC2)cc(-c2ccc(C(C)C)cc2)n1C1CCN(C(=O)OC(C)(C)C)CC1	> 5	–	–	> 10	–
Cc1c(CN2CCOCC2)cc(-c2ccc(C(C)C)cc2)n1C1CCCN(C(=O)OC(C)(C)C)C1 (single isomer, unassigned)	30 (≈ 14.5 µg/mL)	16	–	–	–
NNC(=O)c1ccncc1 [ISONIAZID]	1.8 (≈ 0.247 µg/mL)	–	–	–	–
